Assay results from patent US10456365B2, “Methods and formulations for supporting and promoting bone health” (Primus Pharmaceuticals, Inc., priority 2016, dated 2019).

What was measured:
Type in all cases: cell-based, mouse (C57BL/6)
[1] = test system: osteoclastogenesis; experiment: Osteoclastogenesis in bone marrow cell culture
Procedure: C57BL/6 cells were prepared as 2×10^5/ml per well in 24-well plates. Cells were cultured in DMEM with 10% FBS and 1% penicillin-steptomycin in water-saturated atmosphere containing 5% CO2 and 95% air at 37° C. Cells were cultured with or without Tumor necrosis factor-α (5 ng/ml) for 3 days in the presence or absence of β-Caryophyllene (0.1-100 μM). Medium was replaced and cultures were maintained for an additional 4 days. In other experiments, the cells were cultured for 3 days and then placed in medium without β-Caryophyllene for an additional 4 days. Cells were stained with a marker enzyme of osteoclasts and washed with phosphate buffered sale solution and foxed with 10% neutralized formalin-phosphate for 10 minutes. The cells were stained with TRACP staining and incubated for 90 minutes. TRACP—positive cells containing three or more nuclei were counted as osteoclast-like cells.

[2] = test system: osteoblastic mineralization; experiment: Mineralization in bone marrow culture
Procedure: C57BL/6 cells were prepared as 1×10^6/ml per well in 12-well plates. Cells were cultured in either the presence or absence of DMEM with mineralization medium containing ascorbic acid (100 μg/ml) and 4 mM β-glycerophosphate in DMEM with 10% FBS and 1% penicillin-steptomycin. […] After culture, the cells were washed and stained. After elution with 10% cetylpyridinium chloride solution, the absorbance at 570 nm on a microtiter plate reader.

[3] = test system: differentiation of bone marrow cells to adipocytes; experiment: Adipogenesis in bone marrow cell culture
Procedure: C57BL/6 cells were prepared as 1×10^6/ml per well. These cells were cultured using 12-well plates in DMEM containing 10% FBS, 1% penicillin-steptomycin in the presence or absence of dexamethasone (1 μM/ml) and 3-isobutyl-q-methylxanthine (0.5 mM/ml) with either vehicle or β-Caryophyllene (0.1-100 μM). Medium was replaced containing insulin (10 μg/ml) without dexamethasone and 3-isobutyl-q-methylxanthine, with either the presence or absence of β-Caryophyllene (0.1-100 μM) for four days in CO2 incubator (37° C.). In other experiments, the cells were cultured without β-Caryophyllene for an additional four days. After culture, the adipocytes were stained and counted.
Bone marrow cells (1×10^6 cells/well/ml in 12-well plates) were cultured for 3 days in DMEM containing 10% FBS, 1% penicillin-streptomycin (P/S; 10,000 U/L) in the presence or absence of the differentiation medium (DM) [dexamethasone (1 μM/ml of medium) and 3-isobutyl-1-methylxanthine (IBMX; 0.5 mM/ml of medium)] with either vehicle or β-caryophyllene (0.1-100 μM). […] After culture, the medium was removed, and adipocytes were stained with Oil Red O. Adipocytes were counted by light microscopy. For quantification, the dye was extracted with 0.2 ml of isopropanol for 1 minute, and the absorbance (490 nm) was read using a Spectra Count microplate photometer.

Compound: C=C1CC/C=C(\C)CC[C@@H]2[C@@H]1CC2(C)C [β-Caryophyllene]
- osteoclastogenesis ([1]; 7 days, medium containing Tumor necrosis factor-α): suppressed osteoclastogenesis
- osteoclastogenesis ([1]; cultured in Tumor necrosis factor-α with β-Caryophyllene, then without β-Caryophyllene for additional 4 days): also exhibited suppression of osteoclastogenesis
- osteoblastic mineralization ([2]; 18 days, mineralization medium): stimulated osteoblastic mineralization
- osteoblastic mineralization ([2]; β-Caryophyllene for 7 days, then medium without it for additional 11 days): Stimulation was also seen
- differentiation of bone marrow cells to adipocytes ([3]; 0.1-100 μM, 7 days, differentiation medium with or without insulin (FIG. 1)): suppressed differentiation of from bone marrow cells to adipocytes
- differentiation of bone marrow cells to adipocytes ([3]; C57BL/6 cells cultured for 7 days with or without β-Caryophyllene): suppressed differentiation of bone marrow cells to adipocytes
